Source: patent US8822464B2, “N-aryl-piperazine derivatives and their use as positive allosteric modulators of mGluR5 receptors” (Boehringer Ingelheim International GmbH, priority 2011, dated 2014)

biological target: T1, human recombinant mGluR5 (Homo sapiens, UniProt P41594); assay: positive modulation of mGluR5, calcium based FLIPR assay in HEK 293 cells; conditions: HEK 293 cell line expressing human recombinant mGluR5; peak height of Ca release fluorescence signal after glutamate at approximately 5% basal stimulation; nonlinear regression
T1 construct: expressed in transfected cells; host or cells: HEK 293 cell line; cultured with tetracycline, hygromycin and geneticin; tetracycline withdrawn 3-7 days before the assay
Procedure: The positive modulation of mGluR5 is measured in a HEK 293 cell line expressing human recombinant mGluR5 and is detected with calcium based FLIPR assay. The cells are cultured with DMEM supplemented with 10% FCS, 2 μg/mL tetracycline, 100 μg/mL hygromycin and 500 μg/mL gneticin. The cell culture media is exchanged for tetracycline-free cell culture media 3-7 days before the assay. One day before the assay the cell culture medium is exchanged to DMEM without glutamine and phenol red and supplemented with 10% FCS, 100 μg/mL hygromycin and 500 μg/mL geneticin. On the assay day, the medium of the subconfluent cultures is removed and the cells are detached by addition of 2.5 ml EDTA(0.02%) per 175 cm2 culture flask for 1 minute. The cells are resuspend in Ringer solution (140 mM NaCl, 5 mM KCl, 2.5 mM CaCl2, 1.5 mM MgCl2, 5 mM Glucose, 10 mM Hepes; adjusted to pH 7.4 with NaOH), pooled and Ringer solution added to adjust the volume to 50 mL. The cell suspension is centrifuged for 5 min at 1500 U/min (425 g). The supernatant is removed and the cells washed a second time with 50 ml fresh Ringer solution and centrifuged again as before. The supernatant is again removed and the pellet resuspended in Ringer solution to 1,000,000 cells/ml (1×10^6 cells/mL). The cells are plated onto BD BioCoat Poly-D-Lysine 384 well plates (20.000 cells/well; 20 μl/well). The lid covered plates are then incubated until use at 37° C./10% CO2. For dye loading, 20 μl of Calcium-4 assay kit solution (prepared according to the manufacturer's description in Ringer solution) are added to the cells and the plates are incubated for 80 min 37° C. and then 10 min at room temperature.
Controls, Compound Dilution and Assay Execution:
Each assay plate contained wells with “high” and “low” controls:
Low controls 1% DMSO/ringer solution+basal glutamate activation (defined as 100% CTL).
High controls 10 μM CDPPB+basal glutamate activation (defined as 200% CTL).
Test compounds are dissolved and diluted in DMSO to 100-fold the desired concentrations. In a second step, the compounds are diluted in Ringer solution such that the compounds are 4-fold more concentrated than the desired final assay concentration. The final DMSO concentration was 1%.
20 μl of each compound solution are then transferred to the assay plate and the Ca2+ kinetic is measured to determine any intrinsic compound activity. After 5 min incubation in the FLIPR device, the second stimulation with 20 μl of glutamate in Ringer solution (glutamate concentration adjusted to approximately 5% basal stimulation of the maximal possible glutamate effect) is added and the kinetic Ca2+ response of the wells was measured for the modulation effect.
The peak height of the Ca release related fluorescence signal (9-66) is used for the EC50. The EC50 of the modulation is calculated over a nonlinear regression with GraphPad Prism (Table 1).

T1 sequence (P41594 21-1212): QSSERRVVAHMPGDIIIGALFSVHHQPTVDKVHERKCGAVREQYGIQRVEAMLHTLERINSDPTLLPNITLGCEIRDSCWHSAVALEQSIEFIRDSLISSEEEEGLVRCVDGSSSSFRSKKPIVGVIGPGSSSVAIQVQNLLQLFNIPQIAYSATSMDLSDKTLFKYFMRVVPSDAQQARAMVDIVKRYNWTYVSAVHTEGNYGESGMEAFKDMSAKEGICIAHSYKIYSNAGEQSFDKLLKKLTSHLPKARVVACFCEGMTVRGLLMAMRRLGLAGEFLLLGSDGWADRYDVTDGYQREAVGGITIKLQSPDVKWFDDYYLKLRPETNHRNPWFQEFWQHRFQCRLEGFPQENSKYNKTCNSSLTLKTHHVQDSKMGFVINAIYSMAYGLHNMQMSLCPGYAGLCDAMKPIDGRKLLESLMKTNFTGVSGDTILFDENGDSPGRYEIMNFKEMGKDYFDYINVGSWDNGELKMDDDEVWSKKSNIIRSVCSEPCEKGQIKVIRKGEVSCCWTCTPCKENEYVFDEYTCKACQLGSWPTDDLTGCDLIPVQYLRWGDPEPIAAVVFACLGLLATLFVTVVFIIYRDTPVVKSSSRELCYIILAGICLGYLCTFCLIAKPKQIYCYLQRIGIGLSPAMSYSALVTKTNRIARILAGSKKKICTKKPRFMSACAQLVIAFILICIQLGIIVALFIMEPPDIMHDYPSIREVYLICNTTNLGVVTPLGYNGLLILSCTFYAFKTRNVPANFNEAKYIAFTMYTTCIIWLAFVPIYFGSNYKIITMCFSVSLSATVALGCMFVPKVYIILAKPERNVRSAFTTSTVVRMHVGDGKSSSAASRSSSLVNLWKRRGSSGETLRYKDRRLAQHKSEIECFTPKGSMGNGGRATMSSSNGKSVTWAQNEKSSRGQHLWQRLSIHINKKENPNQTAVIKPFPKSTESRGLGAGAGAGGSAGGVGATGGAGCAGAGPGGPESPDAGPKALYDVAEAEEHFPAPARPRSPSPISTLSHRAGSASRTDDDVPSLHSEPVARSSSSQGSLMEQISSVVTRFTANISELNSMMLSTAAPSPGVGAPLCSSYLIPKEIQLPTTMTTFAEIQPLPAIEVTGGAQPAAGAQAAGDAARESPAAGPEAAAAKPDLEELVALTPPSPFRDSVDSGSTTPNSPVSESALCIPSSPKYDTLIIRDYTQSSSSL

EC50 [nM]	Compound
59	CCc1cccc(-c2cc(CC)n(CC(=O)N3CCN(c4ncccn4)CC3)n2)c1 [Example 7.01.131]
138	CCc1cccc(-c2cc(CC)n(CC(=O)N3CCN(c4ncc(OC)cn4)CC3)n2)c1 [Example 7.01.132]
652	Cc1ccc(-c2cc(-c3ccccc3)nn2CC(=O)N2CCN(c3ncccn3)CC2)nc1C [Example 7.01.133]
865	Cc1cnc(-c2cc(-c3ccccc3)nn2CC(=O)N2CCN(c3ncccn3)CC2)cc1C [Example 7.01.134]
21	Cc1cnc(-c2cc(-c3ccccc3)n(CC(=O)N3CCN(c4ncccn4)CC3)n2)cc1C [Example 7.01.135]
38	Cc1cnc(-c2cc(-c3ccccc3)n(CC(=O)N3CCN(c4ccccn4)CC3)n2)cc1C [Example 7.01.136]
230	CCc1cc(-c2cc(C)c(F)c(C)c2)nn1CC(=O)N1CCN(c2ncccn2)CC1 [Example 7.01.138]
595	CCc1cc(-c2cc(C)c(F)c(C)c2)nn1CC(=O)N1CCN(c2ccccn2)CC1 [Example 7.01.139]
707	CCc1cc(-c2cc(C)c(F)c(C)c2)nn1CC(=O)N1CCN(c2cc(OC)ncn2)CC1 [Example 7.01.140]
346	CCc1cc(-c2cc(C)c(F)c(C)c2)nn1CC(=O)N1CCN(c2ncc(OC)cn2)CC1 [Example 7.01.141]
704	CCc1cc(-c2cc(C)c(F)c(C)c2)nn1CC(=O)N1CCN(c2ncc(F)cn2)CC1 [Example 7.01.142]
20	O=C(Cn1nc(-c2ccccc2)cc1-c1cc(Cl)cs1)N1CCN(c2ncccn2)CC1 [Example 7.01.143]
57	COc1cccc(N2CCN(C(=O)Cn3nc(-c4ccc(F)c(C)c4)cc3-c3ccccc3)CC2)c1 [Example 7.01.144]
216	CCc1cc(-c2ccc(F)c(C)c2)nn1CC(=O)N1CCN(c2cccc(OC)c2)CC1 [Example 7.01.145]
19	COc1cnc(N2CCN(C(=O)Cn3nc(-c4cccc(Cl)c4)cc3-c3ccccc3)CC2)nc1 [Example 7.01.147]
20	COc1cc(N2CCN(C(=O)Cn3nc(-c4cccc(Cl)c4)cc3-c3ccccc3)CC2)ncn1 [Example 7.01.148]
12	O=C(Cn1nc(-c2cccc(Cl)c2)cc1-c1ccccc1)N1CCN(c2ncccn2)CC1 [Example 7.01.149]
5	COc1cc(-c2cc(-c3ccccc3)n(CC(=O)N3CCN(c4ncccn4)CC3)n2)ccc1F [Example 7.01.150]
19	COc1cc(-c2cc(-c3ccccc3)n(CC(=O)N3CCN(c4ccccn4)CC3)n2)ccc1F [Example 7.01.151]
26	COc1cc(N2CCN(C(=O)Cn3nc(-c4ccc(F)c(OC)c4)cc3-c3ccccc3)CC2)ncn1 [Example 7.01.152]
276	COc1cc(-c2cc(-c3ccccc3)nn2CC(=O)N2CCN(c3ncccn3)CC2)ccc1F [Example 7.01.153]
11	Cc1nc(-c2cc(-c3ccccc3)n(CC(=O)N3CCN(c4ncccn4)CC3)n2)ccc1F [Example 7.01.154]
24	Cc1nc(-c2cc(-c3ccccc3)n(CC(=O)N3CCN(c4ccccn4)CC3)n2)ccc1F [Example 7.01.155]
33	COc1cc(N2CCN(C(=O)Cn3nc(-c4ccc(F)c(C)n4)cc3-c3ccccc3)CC2)ncn1 [Example 7.01.156]
35	Cc1cc(-c2cc(-c3ccccc3)n(CC(=O)N3CCN(c4ncccn4)CC3)n2)ncc1F [Example 7.01.157]
79	Cc1cc(-c2cc(-c3ccccc3)n(CC(=O)N3CCN(c4ccccn4)CC3)n2)ncc1F [Example 7.01.158]
39	COc1cc(N2CCN(C(=O)Cn3nc(-c4cc(C)c(F)cn4)cc3-c3ccccc3)CC2)ncn1 [Example 7.01.159]
250	CCc1cc(-c2cccc(C#N)c2)nn1CC(=O)N1CCN(c2ncccn2)CC1 [Example 7.01.160]
297	CCc1cc(-c2cccc(C#N)c2)nn1CC(=O)N1CCN(c2ccccn2)CC1 [Example 7.01.161]
343	CCc1cc(-c2cccc(C#N)c2)nn1CC(=O)N1CCN(c2ncc(OC)cn2)CC1 [Example 7.01.162]
